The values that follow come from ChEMBL document CHEMBL6078641, “Modulation of aryl hydrocarbon receptor activity by halogenated indoles” (Bioorg Med Chem, 2024).

Data set [1] deals with LS174T. Put plainly: Cytotoxicity against human LS174T cells upto 200 uM incubated for 24 hrs by MTT assay. The class given is toxicity, cell-based. A general note: Tetrazolium dyes change colour on reduction, which living cells bring about.
Data set [2] addresses T1, Aryl hydrocarbon receptor (Mus musculus, UniProt P30561).
T1 sequence (P30561 whole entry): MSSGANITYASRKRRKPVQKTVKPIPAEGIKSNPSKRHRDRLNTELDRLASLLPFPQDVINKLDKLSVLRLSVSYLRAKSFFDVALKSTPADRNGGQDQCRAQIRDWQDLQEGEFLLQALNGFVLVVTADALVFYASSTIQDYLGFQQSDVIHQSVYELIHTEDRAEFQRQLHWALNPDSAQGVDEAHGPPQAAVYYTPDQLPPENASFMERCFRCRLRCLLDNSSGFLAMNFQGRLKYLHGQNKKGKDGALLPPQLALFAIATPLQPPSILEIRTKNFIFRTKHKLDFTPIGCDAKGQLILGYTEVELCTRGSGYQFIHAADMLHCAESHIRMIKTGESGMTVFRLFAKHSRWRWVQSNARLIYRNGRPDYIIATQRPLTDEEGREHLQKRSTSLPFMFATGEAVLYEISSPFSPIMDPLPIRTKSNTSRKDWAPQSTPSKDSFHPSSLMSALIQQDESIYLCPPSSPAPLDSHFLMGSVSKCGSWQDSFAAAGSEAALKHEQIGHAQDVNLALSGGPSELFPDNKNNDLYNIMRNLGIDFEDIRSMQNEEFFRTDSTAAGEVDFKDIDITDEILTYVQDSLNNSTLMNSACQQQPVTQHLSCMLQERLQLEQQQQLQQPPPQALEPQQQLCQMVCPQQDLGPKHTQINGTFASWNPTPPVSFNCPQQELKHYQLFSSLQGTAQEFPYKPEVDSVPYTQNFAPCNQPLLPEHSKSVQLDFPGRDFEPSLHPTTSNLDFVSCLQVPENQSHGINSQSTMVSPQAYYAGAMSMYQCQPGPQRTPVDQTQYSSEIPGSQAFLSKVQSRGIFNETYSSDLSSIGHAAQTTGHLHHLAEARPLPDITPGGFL
The experiment in a line: Displacement of [3H]-TCDD from AhR in mouse Hepa1c1c7 cell cytosolic lysate at 50 uM by competitive binding assay relative to control. The data set is classed as subcellular, Cytosol. To be noted: Hepa-1c1c7, mouse, read-out: Activity. (In a radioligand displacement assay an active substance lowers the binding of a labelled ligand.)

A short description of data set [3]: Induction of CYP1A1 mRNA expression in human LS180 cells incubated for 4 hrs by chromatin immunoprecipitation assay. The class given is functional.
For data set [4], the target named is T1, Aryl hydrocarbon receptor. The experiment in a line: Displacement of [3H]-TCDD from AhR in mouse Hepa1c1c7 cell cytosolic lysate by competitive binding assay. The data set is classed as subcellular, Cytosol. To be noted: for Activity: mouse, cytosol, dose 0.1-100 µM.
The target in data set [5] is T2, Aryl hydrocarbon receptor (Homo sapiens, UniProt P35869).
T2 sequence (P35869 whole entry): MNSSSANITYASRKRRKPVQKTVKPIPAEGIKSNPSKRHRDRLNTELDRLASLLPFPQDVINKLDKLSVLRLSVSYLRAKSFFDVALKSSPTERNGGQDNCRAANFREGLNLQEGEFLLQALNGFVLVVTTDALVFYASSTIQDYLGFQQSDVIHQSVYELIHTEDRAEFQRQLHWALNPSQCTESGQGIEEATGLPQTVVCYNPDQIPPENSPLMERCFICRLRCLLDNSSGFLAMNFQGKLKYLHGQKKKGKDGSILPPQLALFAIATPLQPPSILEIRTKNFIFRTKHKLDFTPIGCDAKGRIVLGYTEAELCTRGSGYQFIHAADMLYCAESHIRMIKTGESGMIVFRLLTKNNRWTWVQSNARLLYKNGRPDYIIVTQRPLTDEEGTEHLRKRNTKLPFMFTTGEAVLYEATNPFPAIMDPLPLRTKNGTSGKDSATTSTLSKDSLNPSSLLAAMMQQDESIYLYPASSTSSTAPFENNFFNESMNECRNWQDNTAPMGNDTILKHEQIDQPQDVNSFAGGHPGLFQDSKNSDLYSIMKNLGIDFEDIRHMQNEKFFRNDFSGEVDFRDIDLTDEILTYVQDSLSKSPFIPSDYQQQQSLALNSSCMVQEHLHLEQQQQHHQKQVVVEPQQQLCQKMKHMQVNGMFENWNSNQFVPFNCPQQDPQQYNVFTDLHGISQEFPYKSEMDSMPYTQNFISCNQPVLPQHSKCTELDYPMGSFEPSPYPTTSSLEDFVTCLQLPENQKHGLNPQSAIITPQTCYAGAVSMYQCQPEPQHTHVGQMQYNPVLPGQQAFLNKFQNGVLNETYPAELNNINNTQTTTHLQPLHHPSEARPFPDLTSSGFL
The experiment in a line: Agonist activity at Luc-fused AhR (unknown origin) transcriptional activity expressed in human LS174T cells at 100 uM incubated for 4 hrs by luciferase reporter gene assay relative to control. The class given is cell-based. To be noted: read-out: Activity. On the technique in general: A reporter such as luciferase makes a cellular process visible.

Data set [6] deals with T2, Aryl hydrocarbon receptor. Put plainly: Agonist activity at Luc-fused AhR (unknown origin) transcriptional activity expressed in human LS174T cells incubated for 24 hrs by luciferase reporter gene assay. The data set is classed as cell-based.
In data set [7] the target is T2, Aryl hydrocarbon receptor. Put plainly: Agonist activity at Luc-fused AhR (unknown origin) transcriptional activity expressed in human LS174T cells incubated for 4 hrs by luciferase reporter gene assay. The data set is classed as cell-based.
Data set [8] is described as follows: Induction of CYP1A1 mRNA expression in human LS180 cells assessed as fold increase at 100 uM incubated for 24 hrs by qRT-PCR analysis relative to control. The data set is classed as functional.
A short description of data set [9]: Induction of CYP1A1 mRNA expression in human LS180 cells assessed as fold increase at 100 uM incubated for 8 hrs by qRT-PCR analysis relative to control. The data set is classed as functional.
Data set [10] can be described thus: Induction of CYP1A1 mRNA expression in human LS180 cells at 25 uM incubated for 4 hrs by chromatin immunoprecipitation assay relative to control. The class given is functional.
For data set [11], the system named is LS174T. The experiment in a line: Cytotoxicity against human LS174T cells assessed as decrease in cell viability at 200 uM incubated for 24 hrs by MTT assay relative to control. The class given is toxicity, cell-based.

What is called EC80 is the point of the concentration-response curve where the effect stands at 80%. Take `Brc1cccc2cc[nH]c12`: the Activity result in the data set with LS174T [1] is “Non-toxic”. In [2], the inhibition at 50 µM is more than 70%. Further, in data set [3], it took 5.5 µM to reach the 80% level (EC80).

In general, IC50 refers to the midpoint of a concentration-inhibition curve. The low end stands for higher potency, the high end for lower potency. The Ki is a dissociation constant, usually derived from enzyme kinetics or from competition with a known ligand. Regarding `Fc1cccc2[nH]ccc12`, in the data set with LS174T [1], the Activity result is recorded as “Non-toxic”. For the same compound, the inhibition at 50 µM in data set [2] is more than 70%. Moreover, in data set [4], the concentration for half-maximal inhibition (IC50) worked out at 18.2 µM, the inhibitory constant (Ki) came to 9.1 µM and the Activity entry is “Dose-dependent-effect”. The 80% effect level in data set [3] (EC80) was put at 5.1 µM.

For the compound `Brc1cccc2[nH]ccc12`, in the data set on LS174T [1], the Activity result is “Non-toxic”.

What is called EC50 is the concentration giving half of the maximal effect. `Clc1ccc2cc[nH]c2c1`: in [5], the activity at 100 µM was determined as 92%. Besides, the Activity entry in the data set with LS174T [1] was “Non-toxic”. Moreover, the 50% effective concentration (EC50) in data set [6] is 80.6 µM; in data set [7], 4.3 µM.

Consider `O=C1Cc2cc(F)ccc2N1`, for which the Activity result with LS174T [1] is on record as “Non-toxic”.

Regarding `Fc1cccc2cc[nH]c12`, the Activity entry in the data set on LS174T [1] is “Non-toxic”. Further, the inhibition at 50 µM in data set [2] is more than 70%. Besides, in data set [4], the IC50 is 22.1 µM; the affinity, expressed as Ki, was 11 µM; the Activity result was “Dose-dependent-effect”. In [3], the EC80 is 3.8 µM.

For `Brc1ccc2[nH]ccc2c1`, the activity at 100 µM in [5] was 108%. For the same compound, the Activity result with LS174T [1] is given as “Non-toxic”. Further, the half-maximal effective concentration (EC50) in data set [6] was found to be 58.1 µM; in data set [7], 6.7 µM.

For the compound `Clc1cc2c(cc1Cl)Oc1cc(Cl)c(Cl)cc1O2` [2,3,7,8-TETRACHLORODIBENZO-P-DIOXIN], the “fold change (FC)” value was approximately 92 in data set [8] and approximately 26 in data set [9].

For `O=C1Cc2ccc(Br)cc2N1`, in [10], the Efficacy is given as 12%. The activity at 100 µM in data set [5] was 68%. Moreover, the Activity result with LS174T [1] is “Non-toxic”; in data set [4] it was “Dose-dependent-effect”. Also, in data set [2], the inhibition at 50 µM was 10%. The concentration for half-maximal inhibition (IC50) in data set [4] was more than 100 µM. Further, the EC50 in data set [6] turned out to be 18.6 µM; in data set [7] it was 2.5 µM. For the same compound, the 80% effect level in data set [3] (EC80) was put at 33.1 µM.

In the case of `O=C1Cc2cc(Cl)ccc2N1`, the Activity entry with LS174T [1] is “Non-toxic”.

In the case of `c1ccc2[nH]ccc2c1` [INDOLE], the activity at 100 µM in data set [5] was determined as 94%. In addition, in the data set on LS174T [1], the Activity entry is given as “Non-toxic”. Also, the values for the 50% effective concentration (EC50) in [6] and in [7] were 43.1 µM and 11.1 µM, respectively.

`Clc1cccc2[nH]ccc12`: in data set [5], the activity at 100 µM worked out at 15%. In addition, the Activity entry was “Non-toxic” in the data set with LS174T [1] and 50% in the data set with LS174T [11]. The same compound had an EC50 in data set [7] of 7.9 µM.

For `Fc1ccc2[nH]ccc2c1`, the Activity entry in the data set on LS174T [1] was “Non-toxic”.

On to `Brc1ccc2cc[nH]c2c1`, for which the Activity entry in the data set on LS174T [1] is recorded as “Non-toxic”. Also, in [4], the IC50 worked out at 43.4 µM, the Ki amounted to 21.7 µM and the Activity result is on record as “Dose-dependent-effect”. Further, in data set [3], the EC80 is 4.1 µM.

For `Clc1cccc2cc[nH]c12`, the Activity result in the data set on LS174T [1] is “Non-toxic”.

On to `Clc1ccc2[nH]ccc2c1`, for which the activity at 100 µM in [5] was found to be 30%. Besides, the Activity result is on record as “Non-toxic” in the data set on LS174T [1] and 50% with LS174T [11]. The 50% effective concentration (EC50) in data set [6] was found to be 77.2 µM; in data set [7] it was 24.1 µM.

With `O=C1Cc2cc(Br)ccc2N1`, in the data set with LS174T [1], the Activity result was “Non-toxic”. For the same compound, in [2], the inhibition at 50 µM came out at 20%. Further, in [4], the IC50 was more than 100 µM and the Activity result is reported as “Dose-dependent-effect”. In addition, the EC80 in data set [3] was 4.7 µM.

Turning to `O=C1Cc2ccc(Cl)cc2N1`, the Activity result in the data set on LS174T [1] is given as “Non-toxic”. Further, the inhibition at 50 µM in data set [2] was 50%. In data set [4], the IC50 turned out to be 7.4 µM, the Ki worked out at 3.7 µM and the Activity result was “Dose-dependent-effect”. The compound also returned an EC80 in data set [3] of 0.3 µM.

On to `O=C1Cc2cccc(Cl)c2N1`, for which, in the data set on LS174T [1], the Activity result is reported as “Non-toxic”.

Take `Fc1ccc2cc[nH]c2c1`: the Activity result in the data set on LS174T [1] is “Non-toxic”.

In the case of `O=C1Cc2ccccc2N1` [OXINDOLE], the activity at 100 µM in data set [5] came out at 86%. The Activity entry in the data set with LS174T [1] was “Non-toxic”. The results for the concentration for a half-maximal effect (EC50) in data set [6] and in data set [7] were 80.9 µM and 5.2 µM, respectively.
